Experiments:
healthy participants [1] = assay: Vital signs; format: in vivo, human
Procedure: Safety and tolerability were assessed throughout the study via treatment emergent adverse event (TEAE) monitoring, vital signs (blood pressure, pulse rate, respiration rate, oral temperature), physical examinations, 12-lead ECGs, and clinical laboratory parameters including complete blood count (CBC), coagulation, hematology, clinical chemistry assessments, and urinalysis. Safety laboratory tests were drawn at pre-dose and at 5, 24, 36 and 144-hours post-dose for 60–400 mg Cohorts; and at 24, 48, 72 and 144-hours post-dose for the 600 mg and Food Effect Cohort. […] All adverse events (AEs) were assessed by the investigator for severity and relationship to study medication or study procedures.
All AEs were coded using the Medical Dictionary for Regulatory Activities (MedDRA) version 22.0. All AEs were listed, and the emergence of TEAEs were categorized by body system affected and analyzed to determine whether they were related to treatment. […] Assessment of the grade of toxicity or relation to the study drug for each adverse event was determined by the Investigator. […] Changes in vital signs from pre-dose to 48 h post-dose were placed into 10-time bins and assessed using mixed-measures ANOVA with the time bins as the within-subjects factor and dose as the between-subjects factor. […]

healthy participants [2] = assay: Choice reaction time task (CRT); format: in vivo, human; details: for CRT Median Motor Time / CRT Median Recognition Time / CRT Median Total Time: mean (SD)
Source text: The choice reaction time (CRT; [31]) task was used to measure psychomotor speed. Outcome variables on the CRT were the median total reaction time, which can be broken down into the recognition time (time from stimulus onset to initiation of movement), and the motor reaction time (time from initiation of movement to stimulus termination).
Cognitive data: In this exploratory analysis, each outcome variable of the cognitive data was examined in a mixed model analysis of variance with one between-subjects factor of VU319 dose (0, 60, 120, 240, 400, 600 mg) and a within-subjects factor of testing session (pre-dose vs. post-dost administration). Post-hoc analysis compared each of the VU319 dose cohorts against the placebo group. Because the participants were healthy adults with normal cognitive function, we considered effects between no reductions in function to small improvement (d = 0.0–0.20) to be a positive result. For the food effect study, only the participants who received VU319 were examined due to the disproportionately small placebo group (n = 2). A within-subjects ANOVA including food condition (fasted/fed) and testing session (pre-dose vs. post-dose administration) was performed on each outcome variable.
The choice reaction time (CRT; (Hindmarch, 1984)) task was used to measure psychomotor speed. Outcome variables on the CRT were the median total reaction time, which can be broken down into the recognition time (time from stimulus onset to initiation of movement), and the motor reaction time (time from initiation of movement to stimulus termination).

[3] = Food effect study 120 mg, Fasting, Post-Drug
[4] = Food effect study 120 mg, Fasting, Pre-Drug
[5] = Food effect study 120 mg, Fed, Post-Drug
[6] = Food effect study 120 mg, Fed, Pre-Drug

Cn1cc2c(-c3cc(F)c(CN4Cc5ncccc5C4=O)c(F)c3)cccc2n1 [VU319]
vitals measurements over the first 48 h post-dose (healthy participants [1]; SAD study): no significant dose-by-time interactions | vitals measurements over the first 48 h post-dose (healthy participants [1]; food effect study): no significant dose-by-time interactions | CRT Median Motor Time (healthy participants [2]; [3]): 299.2 (24.19) ms | CRT Median Recognition Time (healthy participants [2]; [3]): 370.55 (33.17) ms | CRT Median Total Time (healthy participants [2]; [3]): 679.55 (35.68) ms | CRT Median Motor Time (healthy participants [2]; [4]): 302 (40.02) ms | CRT Median Recognition Time (healthy participants [2]; [4]): 384.9 (53.58) ms | CRT Median Total Time (healthy participants [2]; [4]): 691.25 (64.17) ms | CRT Median Motor Time (healthy participants [2]; [5]): 297.25 (36.2) ms | CRT Median Recognition Time (healthy participants [2]; [5]): 369.4 (41.57) ms | CRT Median Total Time (healthy participants [2]; [5]): 673.65 (47.86) ms | CRT Median Motor Time (healthy participants [2]; [6]): 321.5 (36.67) ms | CRT Median Recognition Time (healthy participants [2]; [6]): 365.45 (41.27) ms | CRT Median Total Time (healthy participants [2]; [6]): 695.7 (47.32) ms | CRT Median Motor Time (healthy participants [2]; SAD study, 60 mg, Post-Drug): 330.42 (64.58) ms | CRT Median Recognition Time (healthy participants [2]; SAD study, 60 mg, Post-Drug): 394.92 (82.56) ms | CRT Median Total Time (healthy participants [2]; SAD study, 60 mg, Post-Drug): 734.25 (120.68) ms | CRT Median Motor Time (healthy participants [2]; SAD study, 60 mg, Pre-Drug): 331.08 (35.75) ms | CRT Median Recognition Time (healthy participants [2]; SAD study, 60 mg, Pre-Drug): 391.33 (59.93) ms | CRT Median Total Time (healthy participants [2]; SAD study, 60 mg, Pre-Drug): 735.08 (60.61) ms | CRT Median Motor Time (healthy participants [2]; SAD study, 120 mg, Post-Drug): 332.67 (89.6) ms | CRT Median Recognition Time (healthy participants [2]; SAD study, 120 mg, Post-Drug): 389 (43.6) ms | CRT Median Motor Time (healthy participants [2]; SAD study, 120 mg, Pre-Drug): 329.08 (80.22) ms | CRT Median Recognition Time (healthy participants [2]; SAD study, 120 mg, Pre-Drug): 384.92 (42.09) ms | CRT Median Total Time (healthy participants [2]; SAD study, 120 mg, Pre-Drug): 718.58 (103.36) ms | CRT Median Motor Time (healthy participants [2]; SAD study, 240 mg, Post-Drug): 353.25 (69.11) ms | CRT Median Recognition Time (healthy participants [2]; SAD study, 240 mg, Post-Drug): 399 (83.54) ms | CRT Median Total Time (healthy participants [2]; SAD study, 240 mg, Post-Drug): 759.42 (151.55) ms | CRT Median Motor Time (healthy participants [2]; SAD study, 240 mg, Pre-Drug): 374.58 (64.5) ms | CRT Median Recognition Time (healthy participants [2]; SAD study, 240 mg, Pre-Drug): 410.5 (68.61) ms | CRT Median Total Time (healthy participants [2]; SAD study, 240 mg, Pre-Drug): 800.92 (121.25) ms | CRT Median Motor Time (healthy participants [2]; SAD study, 400 mg, Post-Drug): 334.33 (33) ms | CRT Median Recognition Time (healthy participants [2]; SAD study, 400 mg, Post-Drug): 388.17 (40.47) ms | CRT Median Total Time (healthy participants [2]; SAD study, 400 mg, Post-Drug): 728.92 (57.1) ms | CRT Median Motor Time (healthy participants [2]; SAD study, 400 mg, Pre-Drug): 331 (38.55) ms | CRT Median Recognition Time (healthy participants [2]; SAD study, 400 mg, Pre-Drug): 396.67 (41.84) ms | CRT Median Total Time (healthy participants [2]; SAD study, 400 mg, Pre-Drug): 731 (55.14) ms | CRT Median Motor Time (healthy participants [2]; SAD study, 600 mg, Post-Drug): 282.33 (56.95) ms | CRT Median Recognition Time (healthy participants [2]; SAD study, 600 mg, Post-Drug): 362.67 (52.01) ms | CRT Median Total Time (healthy participants [2]; SAD study, 600 mg, Post-Drug): 649.58 (71.76) ms | CRT Median Motor Time (healthy participants [2]; SAD study, 600 mg, Pre-Drug): 291.42 (46.98) ms | CRT Median Recognition Time (healthy participants [2]; SAD study, 600 mg, Pre-Drug): 364.92 (18.0) ms | CRT Median Total Time (healthy participants [2]; SAD study, 600 mg, Pre-Drug): 662.17 (61.66) ms | CRT total, recognition and motor time, effect of dose (healthy participants [2]; SAD study, all p > 0.1): no effect of dose, session, nor a dose by session interaction | CRT recognition time, food condition by session interaction, effect size d (healthy participants [2]; food effect study, 120 mg, p = 0.027, quicker recognition post-dose in fasted condition): 1.76
